Measurements: ChEMBL document CHEMBL1126352, “Novel stereoselective calcium channel ligands of the diphenylalkylamine-type” (Bioorg Med Chem Lett, 1992)

Molecular target: Voltage-gated L-type calcium channel (Rattus norvegicus, UniProt P22002+Q02485+P27732)
Experiment: Inhibition of [3H]nitrendipine binding to calcium channel of rat brain membranes.
Type: cell membranes, Membrane

SMILES	Kd [M l-1]
CC(C)(C)c1ccc(CCCCN2CCC(C(O)(c3ccccc3)c3ccc(Cl)cc3)CC2)cc1 (racemic)	1.15e-7
CC(C)(C)c1ccc(CCCCN2CCC(C(O)(c3ccccc3)c3ccc(Cl)cc3)CC2)cc1 (stereo in doubt)	9.36e-8
CC(Cc1ccccc1)NCCC(c1ccccc1)c1ccccc1 (stereo not drawn) [PRENYLAMINE]	2.09e-7
